Measured values reported in the NIST ThermoML archive (doi:10.1021/je300631s).

Legend:
[1] = for surface tension liquid-gas: Maximal bubble pressure; for mass density: 101.33 kPa, Vibrating tube method
[2] = refractive index (Na D-line) (dimensionless); conditions: 298.15 K; 101.33 kPa; Liquid; Standard Abbe refractometry
[3] = xn = mol fraction of the nth substance listed; conditions: 298.15 K, 101 kPa, Liquid, Vibrating tube method

Cc1ccc(C)o1 [2,5-dimethylfuran]
[1]
Conditions	surface tension liquid-gas [mN/m]
293.15 K	25.42
303.15 K	24.04
313.15 K	22.73
323.15 K	21.41
333.15 K	20.22
343.15 K	19.1
353.15 K	18.05
358.15 K	17.5

[1]
Conditions	Normal boiling temperature, Liquid [°C]	mass density, 293.15 K [kg/m3]	mass density, 298.15 K [kg/m3]	mass density, 303.15 K [kg/m3]	mass density, 313.15 K [kg/m3]	mass density, 323.15 K [kg/m3]	mass density, 333.15 K [kg/m3]	mass density, 343.15 K [kg/m3]	mass density, 353.15 K [kg/m3]	mass density, 358.15 K [kg/m3]
Ebulliometric method (Recirculating still)	93.68	–	–	–	–	–	–	–	–	–
Liquid	–	901.18	895.7	890.37	879.43	868.36	857.1	845.67	834.01	828.13

[1], Liquid, Ebulliometric method (Recirculating still)
Conditions	vapor or sublimation pressure [kPa]
331.46 K	30.01
335.51 K	35.01
339.09 K	40.01
342.32 K	45.01
345.26 K	50.01
348 K	55.01
350.53 K	60.01
352.9 K	65.01
355.13 K	70.01
357.24 K	75.01
359.24 K	80.01
361.13 K	85.01
362.95 K	90.01
364.69 K	95.01
366.79 K	101.33

Conditions	refractive index
[2]	1.4404

Cc1ccc(C)o1 [2,5-dimethylfuran] + CCCCCC
[3]
Conditions	mass density [kg/m3]
x2 = 0	895.7
x2 = 0.058	878.43
x2 = 0.103	865.07
x2 = 0.169	846.48
x2 = 0.211	834.86
x2 = 0.284	815.33
x2 = 0.326	804.35
x2 = 0.373	792.42
x2 = 0.425	779.22
x2 = 0.474	767.35
x2 = 0.523	755.53
x2 = 0.577	743.04
x2 = 0.671	722.12
x2 = 0.73	709.38
x2 = 0.854	683.63
x2 = 0.915	671.56
x2 = 0.979	659.09

CCCCCC [hexane] + Cc1ccc(C)o1
Conditions	mass density [kg/m3]
[3], x1 = 1	655.17
